{"source": "patent US6482948B1", "about": "“Thienopyrimidine compounds and salts thereof and process for the preparation of the same” (Nippon Soda Co., Ltd., priority 1999, dated 2002)", "key": {"[1]": {"target": "PDE 4 (cGMP non-inhibitable cAMP PDE)", "assay": "Phosphodiesterase inhibiting activity, PDE 4", "type": "biochemical", "details": "isozyme from dog kidney; 1 μM [3H]-cAMP or [3H]-cGMP; read-out: Inhibition of PDE Activity: IC50 PDE 4", "experimental": "(§1) Pharmacological Test Example 1: Phosphodiesterase Inhibiting Activity\n(§2) Cyclic nucleotide phosphodiesterases from human platelets and from the heart and kidney of a dog were eluted by the concentration gradient method with 70 to 1000 mM of sodium acetate on DEAE-cellulose column chromatography (Whatman Co. Ltd., DE-52, φ3.2×13 cm) according to the method of Thompson and others (Thompson W. J., et al., Advances in Cyclic Nucleotide Research: 10, 69-92, 1979), and separated into isozymes. PDE 5 (cGMP specific PDE) and PDE 3 (cGMP inhibitable cAMP PDE) were separated from the platelets, PDE 1 (Ca-calmodulin activatable PDE) from the heart, and PDE 4 (cGMP non-inhibitable cAMP PDE) from the kidney. The method of Thompson, et al was partially modified to measure phosphodiesterase activities: 1 μM of [3H]-cAMP or [3H]-cGMP was decomposed with phosphodiesterase. The produced 5′-AMP or 5′-GMP was decomposed to adenosine or guanosine with a snake venom (Sigma V7000). The reaction solution was added to anion exchange resin (Bio-Rad Co. Ltd., AG1-X8). Non-adsorbed adenosine or guanosine was counted by a liquid scintillation counter. A concentration causing 50% inhibition of the enzyme activity (IC50) was calculated from concentration inhibition curves."}, "[2]": {"target": "T1, PDE 5 (cGMP specific PDE) (Homo sapiens, UniProt O76074)", "T1 construct": "from tissue; host or cells: human platelets", "assay": "Phosphodiesterase inhibiting activity, PDE 5", "type": "biochemical", "details": "isozyme from human platelets; 1 μM [3H]-cAMP or [3H]-cGMP; read-out: Inhibition of PDE Activity: IC50 PDE 5", "experimental": "as §1, §2"}, "PDE 2": {"target": "T2, PDE 2 (Homo sapiens, UniProt O00408)", "T2 construct": "eluted by the concentration gradient method with 70 to 1000 mM of sodium acetate on DEAE-cellulose column chromatography; from tissue", "T2 sequence (O00408 whole entry)": "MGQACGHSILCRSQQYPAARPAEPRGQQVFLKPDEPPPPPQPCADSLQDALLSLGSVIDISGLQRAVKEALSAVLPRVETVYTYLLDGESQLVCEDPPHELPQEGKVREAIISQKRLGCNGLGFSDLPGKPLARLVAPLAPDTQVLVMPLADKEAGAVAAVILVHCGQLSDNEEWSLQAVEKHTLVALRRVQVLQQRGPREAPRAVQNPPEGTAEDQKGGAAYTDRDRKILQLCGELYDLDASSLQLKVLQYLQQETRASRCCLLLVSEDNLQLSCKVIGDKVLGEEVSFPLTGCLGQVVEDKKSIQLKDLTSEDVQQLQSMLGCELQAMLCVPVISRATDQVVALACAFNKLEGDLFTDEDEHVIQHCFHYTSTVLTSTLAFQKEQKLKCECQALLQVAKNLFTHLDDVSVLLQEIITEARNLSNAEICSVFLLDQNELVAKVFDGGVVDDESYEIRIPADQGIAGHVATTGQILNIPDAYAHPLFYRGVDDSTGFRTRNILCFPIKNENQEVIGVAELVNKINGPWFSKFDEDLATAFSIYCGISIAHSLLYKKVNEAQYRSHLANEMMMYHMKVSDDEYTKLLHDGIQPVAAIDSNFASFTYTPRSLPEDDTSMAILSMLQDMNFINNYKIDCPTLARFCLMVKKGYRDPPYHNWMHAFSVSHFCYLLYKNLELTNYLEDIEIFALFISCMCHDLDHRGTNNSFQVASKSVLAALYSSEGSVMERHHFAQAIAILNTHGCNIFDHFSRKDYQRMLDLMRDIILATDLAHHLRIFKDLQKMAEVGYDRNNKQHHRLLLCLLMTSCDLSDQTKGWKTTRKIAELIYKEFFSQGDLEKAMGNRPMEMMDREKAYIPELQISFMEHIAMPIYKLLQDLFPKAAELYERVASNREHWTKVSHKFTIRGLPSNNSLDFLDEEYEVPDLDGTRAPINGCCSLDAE", "assay": "Phosphodiesterase inhibiting activity, PDE 2", "type": "biochemical", "details": "1 μM [3H]-cAMP or [3H]-cGMP; source of isozyme not given; read-out: Inhibition of PDE Activity: IC50 PDE 2", "experimental": "[Worded in the source for another target; this target is reported under the same test.] as §1, §2"}, "[3]": {"target": "T3, PDE 3 (cGMP inhibitable cAMP PDE) (Homo sapiens, UniProt Q14432)", "T3 construct": "from tissue; host or cells: human platelets", "T3 sequence (Q14432 whole entry)": "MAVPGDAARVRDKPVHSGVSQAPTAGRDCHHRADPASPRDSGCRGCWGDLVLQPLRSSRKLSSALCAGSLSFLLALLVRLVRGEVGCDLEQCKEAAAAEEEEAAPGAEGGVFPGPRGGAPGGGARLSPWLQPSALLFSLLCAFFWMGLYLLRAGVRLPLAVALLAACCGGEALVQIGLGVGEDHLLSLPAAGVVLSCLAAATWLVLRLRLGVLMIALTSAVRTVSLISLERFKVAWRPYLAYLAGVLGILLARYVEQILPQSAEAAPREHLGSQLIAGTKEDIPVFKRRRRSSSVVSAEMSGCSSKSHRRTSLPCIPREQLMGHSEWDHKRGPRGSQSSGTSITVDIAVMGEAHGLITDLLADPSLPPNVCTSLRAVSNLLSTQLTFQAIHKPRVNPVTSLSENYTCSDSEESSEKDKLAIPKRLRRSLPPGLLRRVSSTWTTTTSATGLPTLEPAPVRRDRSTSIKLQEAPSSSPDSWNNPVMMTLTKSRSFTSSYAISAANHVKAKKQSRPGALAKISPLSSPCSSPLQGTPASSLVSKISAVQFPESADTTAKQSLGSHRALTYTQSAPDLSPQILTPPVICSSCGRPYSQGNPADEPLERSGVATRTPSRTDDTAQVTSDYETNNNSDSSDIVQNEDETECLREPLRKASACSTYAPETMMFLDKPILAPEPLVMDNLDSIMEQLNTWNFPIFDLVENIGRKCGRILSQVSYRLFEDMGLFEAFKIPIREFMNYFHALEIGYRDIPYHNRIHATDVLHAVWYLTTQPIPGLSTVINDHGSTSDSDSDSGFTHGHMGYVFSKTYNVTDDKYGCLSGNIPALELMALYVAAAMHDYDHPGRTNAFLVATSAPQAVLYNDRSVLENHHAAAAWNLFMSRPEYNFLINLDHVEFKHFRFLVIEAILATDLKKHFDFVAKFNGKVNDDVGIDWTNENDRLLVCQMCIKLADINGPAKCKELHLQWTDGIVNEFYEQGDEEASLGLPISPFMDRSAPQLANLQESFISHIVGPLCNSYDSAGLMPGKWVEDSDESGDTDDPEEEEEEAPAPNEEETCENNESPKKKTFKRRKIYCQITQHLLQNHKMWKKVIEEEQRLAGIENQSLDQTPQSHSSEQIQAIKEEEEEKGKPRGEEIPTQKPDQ", "assay": "Phosphodiesterase inhibiting activity, PDE 3", "type": "biochemical", "details": "isozyme from human platelets; 1 μM [3H]-cAMP or [3H]-cGMP; read-out: Inhibition of PDE Activity: IC50 PDE 3", "experimental": "as §1, §2"}, "[4]": {"target": "PDE 1 (Ca-calmodulin activatable PDE)", "assay": "Phosphodiesterase inhibiting activity, PDE 1", "type": "biochemical", "details": "isozyme from dog heart; 1 μM [3H]-cAMP or [3H]-cGMP; read-out: Inhibition of PDE Activity: IC50 PDE 1", "experimental": "as §1, §2"}, "thoracic aortas": {"tested_on": "thoracic aortas", "assay": "Vasodilating activity, phenylephrine-contracted thoracic aorta ring preparations (Magnus method)", "parameters": "species or system Sprague-Dawley male rats", "details": "rat thoracic aorta ring preparations contracted with 1 μM phenylephrine, 37° C., drug added cumulatively", "experimental": "Pharmacological Test Example 2: Vasodilating Activity\nA vasodilating activity was assessed according to the method of Ken-ichi Hirata and Mitsuhiro Yokoyama (Arteriosclerosis and Hyperlipemia Research Strategies, published by Shujunsha (Japan), pages 275-277, 1996): The thoracic aortas were extracted from Sprague-Dawley male rats (weighing 180 to 360 g). After unnecessary connective tissues were removed, the aortas were cut to 5mm-long pieces to make ring strip preparations, and assessed by the Magnus method (37° C.). A nutrient solution used was a Krebs-Henseleit solution aerated with 5% carbon dioxide gas and 95% oxygen gas. Specimens were equilibrated for about 60 minutes, and then contracted by adding 1 μM of phenylephrine. 1 μM of acetylcholine was added at the second phenylepherine-induced contraction in order to confirm an endothelial cell dependent relaxation response. At the third phenylepherine-induced contraction, a drug to test was added cumulatively, and the relaxation action was observed. Drugs to test were all dissolved in DMSO to use for the tests. The tested drugs were assessed by 50% relaxation rates (EC50) obtained from vasodilation rates to respective concentrations (the maximum relaxation was measured by adding 100 μM of papaverine)."}}}
{"compound": "COc1ccc(CNc2nc(C(=O)Nc3cccnc3)nc3sc4c(c23)CCN(C)C4)cc1Cl", "note": "[1-81]", "values": [{"measurement": "melting point", "result": "145 to 147", "unit": "°C"}, {"measurement": "IC50", "setting": "[1]", "result": 6.4, "unit": "µM"}, {"measurement": "IC50", "setting": "[2]", "result": 0.006, "unit": "µM"}, {"measurement": "IC50", "setting": "PDE 2", "result": "> 10", "unit": "µM"}, {"measurement": "IC50", "setting": "[3]", "result": "> 10", "unit": "µM"}, {"measurement": "IC50", "setting": "[4]", "result": "> 10", "unit": "µM"}, {"measurement": "EC50", "setting": "thoracic aortas", "result": 0.0031, "unit": "µM"}]}
